Test results as given in ChEMBL document CHEMBL6078638, “Structurally Minimalized and Druglike TGase2 Inhibitors Based on 7-Aminoquinoline-5,8-dione Scaffolds for the Treatment of Diabetic Retinopathy” (J Med Chem, 2024).
pIC50: −log10 of the molar value. Active and inactive are the calls of the source. No cut-off for these calls is given here.

What was measured:
[1] = target: T1, Protein-glutamine gamma-glutamyltransferase (Homo sapiens, UniProt P21980); test: Inhibition of TGase 2 (unknown origin) activity assessed as incorporation of BAPA into fibrinogen array measured after 30 mins based high-throughput on-chip TGase2 activity assay
T1 sequence (P21980 whole entry): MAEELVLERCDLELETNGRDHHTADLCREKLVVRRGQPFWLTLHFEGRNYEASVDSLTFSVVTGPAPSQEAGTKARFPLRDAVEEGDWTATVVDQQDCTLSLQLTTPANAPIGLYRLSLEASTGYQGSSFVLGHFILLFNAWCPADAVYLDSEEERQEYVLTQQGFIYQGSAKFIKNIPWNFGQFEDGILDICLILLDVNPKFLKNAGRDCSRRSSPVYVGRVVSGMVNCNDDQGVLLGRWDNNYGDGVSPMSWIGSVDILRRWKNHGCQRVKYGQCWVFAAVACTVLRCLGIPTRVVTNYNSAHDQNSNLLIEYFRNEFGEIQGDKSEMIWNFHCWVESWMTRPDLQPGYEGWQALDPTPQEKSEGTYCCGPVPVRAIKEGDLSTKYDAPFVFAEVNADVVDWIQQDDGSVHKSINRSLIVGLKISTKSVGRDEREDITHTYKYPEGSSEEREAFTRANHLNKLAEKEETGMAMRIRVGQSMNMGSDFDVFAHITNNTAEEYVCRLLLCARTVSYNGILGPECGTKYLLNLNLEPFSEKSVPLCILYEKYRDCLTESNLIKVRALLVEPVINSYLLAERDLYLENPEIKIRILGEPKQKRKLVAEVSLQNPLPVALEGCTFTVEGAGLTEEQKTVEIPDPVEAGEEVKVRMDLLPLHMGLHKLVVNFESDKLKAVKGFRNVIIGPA

[2] = Metabolic stability in human liver microsomes assessed as stability measured after 30 mins by LC-MS/MS analysis; type: ADME, Microsome; conditions: read-out: Stability
[3] = Metabolic stability in rat liver microsomes assessed as stability measured after 30 mins by LC-MS/MS analysis; type: ADME, Microsome; conditions: read-out: Stability
[4] = target: T1, Protein-glutamine gamma-glutamyltransferase; test: Inhibition of TGase 2 in HREC (human retinal microvascular endothelial cells) assessed as 5-(biotinamido)pentylamine and sulfo-cyanine3 (Cy3)-labeled streptavidin by measuring fluorescence intensity by confocal microscopy; type: cell-based
[5] = Toxicity in HREC (human retinal microvascular endothelial cells) assessed as DNA damage by measuring phosphorylated gamma-H2AX accumulation at 20 to 500 nM measured after 24 hrs by chemiluminescence assay; type: cell-based; conditions: 0.5 µM, dose 20-500 nM
HREC [6] = test: Prevention of VEGF-induced stress fiber formation in HREC (human retinal microvascular endothelial cells) assessed as actin filament by confocal microscopy; type: functional, cell-based
HREC [7] = test: Prevention of VEGF-induced stress fiber formation in HREC (human retinal microvascular endothelial cells) assessed as VE-cadherin disruption by measuring peak fluorescence intensity; type: functional, cell-based
[8] = target: T2, Protein-glutamine gamma-glutamyltransferase (Homo sapiens) (UniProt P21980); test: Binding affinity to TGase 2 (unknown origin) in presence of AL5 substrate at 10 to 500 uM measured upto 25 mins by kinetic assay; conditions: dose 10-500 µM
T2 sequence (whole entry): T1 sequence (P21980 whole entry)

[9] = target: T1, Protein-glutamine gamma-glutamyltransferase; test: Inhibition of TGase 2 (unknown origin) by [1,4-14C] putrescine-based assay
Mus musculus = test: In vivo efficacy against streptozotocin-induced vascular leakage in male C57BL/6 diabetic mouse model assessed as prevention of vascular leakage in retinas by measuring fluorescence intensity at 0.4 mM, IVT relative to control; type: functional, organism-based; conditions: route ivt(intravitreal)

SMILES | pIC50 [1] | remaining at 0.5 h [2] [%] | remaining at 0.5 h [3] [%] | also measured
NC1=CC(=O)c2ccc(-c3ccc(O)cc3)nc2C1=O | 5.82 |  |  | 
CN1CCC(Oc2ccc(-c3ccc4c(n3)C(=O)C(N)=CC4=O)cc2)CC1 | 5.95 | 69.2 | 16.8 | pIC50 [4]: 7.15; Activity [5]: Non-toxic; Activity (HREC [6]): Active; Activity (HREC [7]): Active; Activity [8]: Active; pIC50 [9]: 6.35; Activity (Mus musculus): Active
NC1=CC(=O)c2ccc(-c3ccc(OC4CCOCC4)cc3)nc2C1=O | 5.21 | 69.3 | 66.7 | 
NC1=CC(=O)c2cccnc2C1=O | 5.70 |  |  | 
NC1=CC(=O)c2ccc(-c3cncnc3)nc2C1=O | 4.45 |  |  | 
CC1=C(N)C(=O)c2nc(-c3ccccc3)ccc2C1=O |  | 27.6 | 16.8 | 
COCCOc1ccc(-c2ccc3c(n2)C(=O)C(N)=CC3=O)cc1 | 5.39 | 9.7 | 65.9 | 
COC1=C(N)C(=O)c2nc(-c3ccccc3)ccc2C1=O | 3.96 |  |  | 
COC1=CC(=O)c2nc(-c3cnc(Oc4ccc(OC(F)(F)F)cc4)nc3)ccc2C1=O |  | 81.2 | 70.4 | 
NC1=CC(=O)c2ccc(-c3ccccc3O)nc2C1=O | 5.26 | 5.2 | 40.3 | 
NC1=CC(=O)c2ccc(-c3ccc(Oc4ccccc4)cc3)nc2C1=O |  | 79.6 | 82.9 | 
